Experimental data: patent US6750228B1, “Aromatic sulfone hydroxamic acid metalloprotease inhibitor” (priority 1997, dated 2004)
Counter-ions that a name gives are not always drawn. Like-named read-outs stand apart in the source and are kept apart here.

Legend:
Assay in all cases: biochemical
[1] = target: T1, MMP-2 (Homo sapiens, UniProt P08253); conditions: read-out: MMP-2 IC50
T1 construct: made in house; provided by Dr. Gregory Goldberg, Washington University
T1 sequence (P08253 110-660): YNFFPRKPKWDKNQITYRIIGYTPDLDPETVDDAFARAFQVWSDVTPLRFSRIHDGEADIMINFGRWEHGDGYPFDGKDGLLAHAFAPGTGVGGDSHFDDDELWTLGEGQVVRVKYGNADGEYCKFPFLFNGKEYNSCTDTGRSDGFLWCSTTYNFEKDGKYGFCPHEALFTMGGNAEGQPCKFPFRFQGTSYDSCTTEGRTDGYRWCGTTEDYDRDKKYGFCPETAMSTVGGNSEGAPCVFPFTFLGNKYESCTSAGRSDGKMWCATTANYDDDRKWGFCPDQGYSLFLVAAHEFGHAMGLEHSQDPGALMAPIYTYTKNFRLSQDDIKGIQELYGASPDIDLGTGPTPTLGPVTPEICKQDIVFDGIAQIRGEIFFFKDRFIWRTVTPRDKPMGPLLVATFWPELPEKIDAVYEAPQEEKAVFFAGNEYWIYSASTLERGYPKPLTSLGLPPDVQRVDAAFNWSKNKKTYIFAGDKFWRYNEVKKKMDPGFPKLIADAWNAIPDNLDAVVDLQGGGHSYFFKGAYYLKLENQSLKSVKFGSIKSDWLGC
In short: (§1)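 APMA- or trypsin-activated enzymes were preincubated with inhibitor for 5 min at room temperature, then the fluorogenic substrate MCA-Pro-Leu-Gly-Leu-Dpa-Ala-Arg-NH2 was added to a final 4 μM.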

[2] = target: T2, MMP-1 (Homo sapiens, UniProt P03956); conditions: read-out: MMP-1 IC50
T2 construct: made in house; host or cells: transfected HT-1080 cells (provided by Dr. Harold Welgus, Washington University)
T2 sequence (P03956 100-469): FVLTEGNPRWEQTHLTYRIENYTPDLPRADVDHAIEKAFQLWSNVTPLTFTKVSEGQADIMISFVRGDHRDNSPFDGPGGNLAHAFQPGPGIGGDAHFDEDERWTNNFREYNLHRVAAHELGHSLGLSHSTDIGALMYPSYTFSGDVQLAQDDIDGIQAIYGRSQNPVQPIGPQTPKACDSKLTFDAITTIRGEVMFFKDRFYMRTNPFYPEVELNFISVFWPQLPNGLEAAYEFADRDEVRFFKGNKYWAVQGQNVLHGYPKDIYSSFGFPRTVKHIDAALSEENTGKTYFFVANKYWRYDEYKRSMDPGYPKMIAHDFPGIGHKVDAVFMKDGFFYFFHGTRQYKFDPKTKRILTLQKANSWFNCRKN
In short: as §1

[3] = target: T3, MMP-13 (Homo sapiens, UniProt P45452); conditions: read-out: MMP-13 IC50
T3 construct: made in house; host or cells: baculovirus / insect cells
In short: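 Assay buffer 100 mM Tris-HCl, 100 mM NaCl, 10 mM CaCl2, pH 7.5. Activated MMP + inhibitor, 5 min RT; then methoxycoumarin peptide substrate, 4 μM final. Readout fluorescence; IC50 calculated.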

[4] = recombinant human MMP-2, MCA peptide substrate 4 μM, pH 7.5, room temperature
[5] = recombinant human MMP-1, MCA peptide substrate 4 μM, pH 7.5, room temperature
[6] = recombinant human MMP-13, MCA peptide substrate 4 μM, pH 7.5, room temperature

IC50 [1, 4] [nM]	IC50 [2, 5] [nM]	IC50 [3, 6] [nM]	Compound	IC50 [1] [nM]	IC50 [2] [nM]	IC50 [3] [nM]
700	> 10000	5.5	O=C(NO)C1(S(=O)(=O)c2ccc(N3CCC(OCc4ccc(COCC(F)(F)C(F)(F)F)cc4)CC3)cc2)CCOCC1 [Example 565]			
72	> 10000	14	O=C(NO)C1(S(=O)(=O)c2ccc(N3CCCC(COCc4ccc(F)cc4)C3)cc2)CCOCC1 (stereo not drawn) [Example 505]			
1900	> 10000	770	O=C(NO)C1(S(=O)(=O)c2ccc(N3CCN(C4CCCCC4)CC3)cc2)CCOCC1 [Example 489]			
29.2	> 10000	2.3	O=C(NO)C1(S(=O)(=O)c2ccc(OC3CCC(OCc4ccccc4Cl)C3)cc2)CCOCC1 (stereo not drawn) [Example 665]			
150	> 10000	10	O=C(NO)C1(S(=O)(=O)c2ccc(N3CC[C@@H](OCc4cccc(C(F)(F)F)c4)C3)cc2)CCOCC1 [Example 532]			
1.2	6000	1.8	COCCc1ccc(OC2CCN(c3ccc(S(=O)(=O)C4(C(=O)NO)CCOCC4)cc3)CC2)cc1 [Example 643]			
300	> 10000	12.1	N#Cc1cc(F)cc(OC2CCN(c3ccc(S(=O)(=O)C4(C(=O)NO)CCOCC4)cc3)CC2)c1 [Example 474]			
210	> 10000	19.3	O=C(NO)C1(S(=O)(=O)c2ccc(N3CCCC(COCc4ccc(Cl)c(Cl)c4)C3)cc2)CCOCC1 (stereo not drawn) [Example 508]			
4	> 10000	6	CC(C)c1cccc(OC2CCN(c3ccc(S(=O)(=O)C4(C(=O)NO)CCOCC4)cc3)CC2)c1 [Example 482]			
500	> 10000	6	COc1c(F)c(F)c(COC2CCN(c3ccc(S(=O)(=O)C4(C(=O)NO)CCOCC4)cc3)CC2)c(F)c1F [Example 561]			
41.8	> 10000	7.3	N#Cc1ccc(S(=O)(=O)N2CCN(c3ccc(S(=O)(=O)C4(C(=O)NO)CCOCC4)cc3)CC2)cc1 [Example 690]			
4700	> 10000	70	CC1CN(c2ccc(S(=O)(=O)C3(C(=O)NO)CCOCC3)cc2)CCC1OCc1ccc(C(F)(F)F)cc1 (stereo not drawn) [Example 583]			
540	> 10000	10	O=C(NO)C1(S(=O)(=O)c2ccc(N3CCC(C(O)c4ccccc4)CC3)cc2)CCOCC1 (stereo not drawn) [Example 827]			
60	> 10000	13.7	Cc1cccc(COC2CCC(Oc3ccc(S(=O)(=O)C4(C(=O)NO)CCOCC4)cc3)C2)c1 (stereo not drawn) [Example 651]			
2900	> 10000	55.3	O=C(NO)C1(S(=O)(=O)c2ccc(N3CCC(Oc4cc(F)c([N+](=O)[O-])c(F)c4)CC3)cc2)CCOCC1 [Example 549]			
480	> 10000	30	O=C(NO)C1(S(=O)(=O)c2ccc(N3CCN(c4cc(C(F)(F)F)ccn4)CC3)cc2)CCOCC1 [Example 534]			
28.8	> 10000	3.3	CCCCC(=O)C1CCN(c2ccc(S(=O)(=O)C3(C(=O)NO)CCOCC3)cc2)CC1 [Example 757]			

The remaining lines, values behind:

Compound	IC50 [1, 4] [nM]	IC50 [2, 5] [nM]	IC50 [3, 6] [nM]	IC50 [1] [nM]	IC50 [2] [nM]	IC50 [3] [nM]
COCCN1CCC(C(=O)NO)(S(=O)(=O)c2ccc(N3CCC(C(=O)N(C)CCc4ccccn4)CC3)cc2)CC1 [Example 235, 1-[4-[[4[(Hydroxyamino)carbonyl]-1-(2-methoxyethyl)-4-piperidinyl]sulfonyl]phenyl]-N-methyl-N-[2-(2-pyridinyl)ethyl]-4-piperidinecarboxamide, Dihydrochloride]	5300	> 10000	235			
O=C(CNCC(F)(F)F)N1CCC(C(=O)NO)(S(=O)(=O)c2ccc(Oc3ccc(C(F)(F)F)cc3)cc2)CC1 [Example 322]	0.3	> 10000	0.3			
O=C(NO)C1(S(=O)(=O)c2ccc(N3CCC(OCc4ccccc4C(F)(F)F)CC3)cc2)CCOCC1 [Example 174]	800	> 10000	23.5			
O=C(Cc1ccccc1)C1CCN(c2ccc(S(=O)(=O)C3(C(=O)NO)CCOCC3)cc2)CC1 [Example 838]	70	> 10000	3			
CC1CC(C)CN(C(=O)C2CCN(c3ccc(S(=O)(=O)C4(C(=O)NO)CCN(C(=O)CN5CCCC5)CC4)cc3)CC2)C1 (stereo not drawn) [Example 298]	> 10000	> 10000	40			
O=C(NO)C1(S(=O)(=O)c2ccc(Oc3ccc(OC(F)(F)F)cc3)cc2)CCN(C(=S)NCCN2CCOCC2)CC1 [Example 199]	< 0.1	3000	0.2			
COc1ccccc1C(=O)C1CCN(c2ccc(S(=O)(=O)C3(C(=O)NO)CCOCC3)cc2)CC1 [Example 655]	1400	> 10000	37.3			
CCCCCC(=O)N1CCN(c2ccc(S(=O)(=O)C3(C(=O)NO)CCOCC3)cc2)CC1 [Example 592]	690	> 10000	57			
C[C@H]1C[C@H](C)CN(C(=O)C2CCN(c3ccc(S(=O)(=O)C4(C(=O)NO)CCN(C(=O)CCl)CC4)cc3)CC2)C1 [Example 275]				> 10000	> 10000	70
CS(=O)(=O)N1CCC(C2CCN(c3ccc(S(=O)(=O)C4(C(=O)NO)CCOCC4)cc3)CC2)CC1 [Example 793]	23.5	> 10000	4			
O=C(NO)C1(S(=O)(=O)c2ccc(Oc3ccncc3)cc2)CCS(=O)(=O)CC1 [Example 160]	90	> 10000	300			
O=C(c1ncc[nH]1)N1CCC(C(=O)NO)(S(=O)(=O)c2ccc(Oc3ccc(OC(F)(F)F)cc3)cc2)CC1 [Example 379]	0.1	> 10000	0.3			
O=C(NO)C1(S(=O)(=O)c2ccc(Oc3ccc(OC(F)(F)F)cc3)cc2)CCN(C(=S)Nc2cccnc2)CC1 [Example 201]	0.2	> 10000	0.3			
COCCN1CCC(C(=O)NO)(S(=O)(=O)c2ccc(N3CCC(C(=O)N4CC(C)CC(C)C4)CC3)cc2)CC1 (stereo not drawn) [Example 233, 4-[[4-[4-[(3,5-Dimethyl-1-piperidinyl)carbonyl]-1-piperidinyl]-phenyl]sulfonyl]-N-hydroxy-1-(2-methoxyethyl)-4-piperidinecarboxamide, Monohydrochloride]				2050	> 10000	43.5
O=C(NO)C1(S(=O)(=O)c2ccc(Oc3ccc(OC(F)(F)F)cc3)cc2)CCN(CCCN2CCOCC2)CC1 [Example 264, N-Hydroxy-1-[3-(4-morpholinyl)propyl]-4-[[4-[4-(trifluoromethoxy)phenoxy]phenyl]sulfonyl]-4-piperidinecarboxamide Dihydrochloride]	< 0.1	4500	0.2			
O=C(NO)C1(S(=O)(=O)c2ccc(N3CCC(OCc4ccc(F)cc4C(F)(F)F)CC3)cc2)CCN(C2CC2)CC1 [Example 414]	1500	> 10000	50.5			
CC1CC(C)CN(C(=O)C2CCN(c3ccc(S(=O)(=O)C4(C(=O)NO)CCN(C(=O)CNCCN(C)C)CC4)cc3)CC2)C1 (stereo not drawn) [Example 289]	> 10000	> 10000	50			
CCN(CC(=O)N1CCC(C(=O)NO)(S(=O)(=O)c2ccc(Oc3ccc(C(F)(F)F)cc3)cc2)CC1)Cc1ccncc1 [Example 329]	0.4	> 10000	0.9			
COc1ccc(Oc2ccc(S(=O)(=O)C3(C(=O)NO)CCS(=O)(=O)CC3)cc2)cc1 [Example 156]				0.45	> 10000	2.2
